Measurements taken from patent US10710986B2, “PD-1/PD-L1 inhibitors” (Gilead Sciences, Inc., priority 2018, dated 2020).

The compounds below were run against PD-1/PD-L1 (Homo sapiens (Human), UniProt Q9NZQ7) (assay: PD-1/PD-L1 biochemical protein-protein interaction assay (ALPHA)). Conditions: 0.3 nM His tagged PD-L1, 2.5 nM biotinylated Fc-PD-1, 60 minutes at 25° C., read-out: IC50 PD-L1-PD1.
Sequence of PD-1/PD-L1 (Q9NZQ7 19-238): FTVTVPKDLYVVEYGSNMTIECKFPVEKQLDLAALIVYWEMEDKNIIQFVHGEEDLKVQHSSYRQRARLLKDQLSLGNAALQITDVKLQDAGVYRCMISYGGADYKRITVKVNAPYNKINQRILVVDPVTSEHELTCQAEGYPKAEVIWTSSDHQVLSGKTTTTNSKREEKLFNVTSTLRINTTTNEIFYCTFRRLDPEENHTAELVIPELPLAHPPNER

Row | IC50 [nM] | Structure (SMILES)
1 | 0.064 | COc1nc(-c2cccc(-c3cccc(-c4cnc(CNC[C@@H]5CNC(=O)C5)c(OC)n4)c3Cl)c2Cl)cnc1CNC[C@@H]1CNC(=O)C1 [compound 480]
2 | 0.227 | COc1nc(-c2cccc(-c3cccc(-c4cnc(CNC[C@@H]5CCC(=O)N5)c(OC)n4)c3Cl)c2Cl)cnc1CNC[C@H]1CNC(=O)C1 [compound 481]
3 | 0.29 | COc1nc(-c2cccc(-c3cccc(-c4cnc(CNCC5(O)CCC5)c(OC)n4)c3Cl)c2Cl)cnc1CNC[C@@H]1CCC(=O)N1 [compound 486]
4 | 0.123 | COc1nc(-c2cccc(-c3cccc(-c4cnc(CN5C[C@H](C)[C@@H](O)C5)c(OC)n4)c3Cl)c2Cl)cnc1CNC[C@@H]1CCC(=O)N1 [compound 487]
5 | 0.247 | COc1nc(-c2cccc(-c3cccc(-c4ccc5c(CNC[C@@H]6CCC(=O)N6)cn(C)c5n4)c3Cl)c2Cl)cnc1CNC[C@@H]1CCC(=O)N1 [compound 495]
6 | 0.169 | COc1nc(-c2cccc(-c3cccc(-c4cnc(CNC[C@@H]5CCC(=O)N5)c(OC)n4)c3Cl)c2F)ccc1CNC[C@@H]1CCC(=O)N1 [compound 498]
7 | 0.087 | COc1nc(-c2cccc(-c3cccc(-c4cnc(CN5CC[C@@H](C(C)(C)O)C5)c(OC)n4)c3Cl)c2Cl)cnc1CNC[C@@H]1CCC(=O)N1 [compound 501]
8 | 0.064 | COc1nc(-c2cccc(-c3cccc(-c4cnc(CN5CC[C@H](C(C)(C)O)C5)c(OC)n4)c3Cl)c2Cl)cnc1CNC[C@@H]1CCC(=O)N1 [compound 502]
9 | 0.106 | COc1nc(-c2cccc(-c3cccc(-c4cnc(CNC5CCOCC5)c(OC)n4)c3Cl)c2Cl)cnc1CNC[C@@H]1CCC(=O)N1 [compound 509]
10 | 0.197 | COc1nc(-c2cccc(-c3cccc(-c4cnc(CN[C@H]5C[C@H](CO)C5)c(OC)n4)c3Cl)c2Cl)cnc1CNC[C@@H]1CCC(=O)N1 [compound 511]
11 | 0.101 | COc1nc(-c2cccc(-c3cccc(-c4cnc(CNCCC(=O)O)c(OC)n4)c3Cl)c2Cl)ccc1CNC[C@@H]1CCC(=O)N1 [compound 512]
12 | 0.064 | COc1nc(-c2cccc(-c3cccc(-c4cnc(CN5CC[C@H](C(=O)O)C5)c(OC)n4)c3Cl)c2Cl)ccc1CNC[C@@H]1CCC(=O)N1 [compound 513]
13 | 0.09 | COc1nc(-c2cccc(-c3cccc(-c4cnc(CN5CC[C@@H](C(=O)O)C5)c(OC)n4)c3Cl)c2Cl)ccc1CNC[C@@H]1CCC(=O)N1 [compound 514]
14 | 0.342 | COc1nc(-c2cccc(-c3cccc(-c4cnc(CN5CCC(c6cc[nH]n6)C5)c(OC)n4)c3Cl)c2Cl)cnc1CNC[C@@H]1CCC(=O)N1 (stereo partly shown) [compound 515]
15 | 0.064 | COc1nc(-c2cccc(-c3cccc(-c4cnc(CN5CC[C@H](O)[C@@H]5C)c(OC)n4)c3Cl)c2Cl)cnc1CNC[C@@H]1CCC(=O)N1 [compound 516]
16 | 0.072 | COc1nc(-c2cccc(-c3cccc(-c4cnc(CNC[C@@H]5CCC(=O)N5)c(OC)n4)c3Cl)c2Cl)cnc1CNCCc1cncnc1 [compound 520]
17 | 0.115 | COc1nc(-c2cccc(-c3cccc(-c4cnc(CN5C[C@@H](O)[C@@H](O)C5)c(OC)n4)c3Cl)c2Cl)cnc1CNC[C@@H]1CCC(=O)N1 [compound 524]
18 | 0.091 | COc1nc(-c2cccc(-c3cccc(-c4cnc(CN5C[C@H](O)[C@@H](O)C5)c(OC)n4)c3Cl)c2Cl)cnc1CNC[C@@H]1CCC(=O)N1 [compound 529]
19 | 0.095 | COc1nc(-c2cccc(-c3cccc(-c4cnc(CN5CC[C@@H](C(N)=O)C5)c(OC)n4)c3Cl)c2Cl)cnc1CNC[C@@H]1CCC(=O)N1 [compound 535]
20 | 0.276 | COc1nc(-c2cccc(-c3cccc(-c4cnc(CN[C@H]5C[C@@H](OC(F)F)C5)c(OC)n4)c3Cl)c2Cl)cnc1CNC[C@@H]1CCC(=O)N1 [compound 536]
21 | 0.171 | COc1nc(-c2cccc(-c3cccc(-c4cnc(CNC[C@@H]5CCC(=O)N5)c(OC)n4)c3Cl)c2Cl)cnc1CNCC[C@@H]1CNC(=O)C1 [compound 539]

Second part, the compound before the results:

Row | Structure (SMILES) | IC50 [nM]
22 | COc1nc(-c2cccc(-c3cccc(-c4cnc(CN5CC[C@]6(O)C[C@@H]6C5)c(OC)n4)c3Cl)c2Cl)cnc1CNC[C@@H]1CCC(=O)N1 [compound 482] | 0.108
23 | COc1nc(-c2cccc(-c3cccc(-c4cnc(CN5CCCC5C(C)(C)O)c(OC)n4)c3Cl)c2Cl)cnc1CNC[C@@H]1CCC(=O)N1 (stereo partly shown) [compound 483] | 0.341
24 | COc1nc(-c2cccc(-c3cccc(-c4cnc(CN5CC(C(C)(C)O)C5)c(OC)n4)c3Cl)c2Cl)cnc1CNC[C@@H]1CCC(=O)N1 [compound 484] | 0.122
25 | COc1nc(-c2cccc(-c3cccc(-c4cnc(CN5C6COCC5C6)c(OC)n4)c3Cl)c2Cl)cnc1CNC[C@@H]1CCC(=O)N1 [compound 485] | 0.229
26 | CNc1nc(-c2cccc(-c3cccc(-c4cnc(CNC[C@@H]5CCC(=O)N5)c(OC)n4)c3Cl)c2Cl)cnc1CN1CC2(C1)CN(C(C)=O)C2 [compound 488] | 0.064
27 | COc1nc(-c2cccc(-c3cccc(-c4cnc5c(CN6CC7(C6)CN(C(C)=O)C7)nn(C)c5n4)c3Cl)c2Cl)cnc1CN1CC2(C1)CN(C(C)=O)C2 [compound 489] | 0.332
28 | CCn1nc(CN2CC3(C2)CN(C(C)=O)C3)c2ncc(-c3cccc(-c4cccc(-c5cnc(CN6CC7(C6)CN(C(C)=O)C7)c(OC)n5)c4Cl)c3Cl)nc21 [compound 490] | 0.565
29 | COc1nc(-c2cccc(-c3cccc(-c4ccc5c(CN6CC7(C6)CN(C(C)=O)C7)cn(C)c5n4)c3Cl)c2Cl)cnc1CN1CC2(C1)CN(C(C)=O)C2 [compound 491] | 0.064
30 | COc1nc(-c2cccc(-c3cccc(-c4ccc5c(CN6CC(O)C6)cn(C)c5n4)c3Cl)c2Cl)cnc1CN1CC(O)C1 [compound 492] | 0.092
31 | COc1nc(-c2cccc(-c3cccc(-c4ccc5c(CN6CC7(CNC(=O)C7)C6)cn(C)c5n4)c3Cl)c2Cl)cnc1CN1CC2(CNC(=O)C2)C1 [compound 493] | 0.109
32 | COc1nc(-c2cccc(-c3cccc(-c4ccc5c(CN6CC7(CCC(=O)N7)C6)cn(C)c5n4)c3Cl)c2Cl)cnc1CN1CC2(CCC(=O)N2)C1 [compound 494] | 0.139
33 | OC1CN(Cc2ncc(-c3cccc(-c4cccc(-c5cnc(CN6CC(O)C6)c(N6CCC6)n5)c4Cl)c3Cl)nc2N2CCC2)C1 [compound 496] | 0.386
34 | COc1nc(-c2cccc(-c3cccc(-c4cnc(CN5CC6(CNC(=O)C6)C5)c(OC)n4)c3Cl)c2F)ccc1CN1CC2(CNC(=O)C2)C1 [compound 497] | 0.276
35 | COc1nc(-c2cccc(-c3cccc(-c4cnc(CN5CC[C@@H](C(C)(C)O)C5)c(OC)n4)c3Cl)c2Cl)cnc1CN1CC[C@@H](C(C)(C)O)C1 [compound 499] | 0.203
36 | COc1nc(-c2cccc(-c3cccc(-c4cnc(CN5CC[C@H](C(C)(C)O)C5)c(OC)n4)c3Cl)c2Cl)cnc1CN1CC[C@H](C(C)(C)O)C1 [compound 500] | 0.232
37 | COc1nc(-c2cccc(-c3cccc(-c4cnc(CN5CCC(C(N)=O)CC5)c(OC)n4)c3Cl)c2Cl)cnc1CNC[C@@H]1CCC(=O)N1 [compound 508] | 0.084
38 | COc1nc(-c2cccc(-c3cccc(-c4cnc(CN5CC[C@](C)(O)C5)c(OC)n4)c3Cl)c2Cl)cnc1CNC[C@@H]1CCC(=O)N1 [compound 510] | 0.192

Row | Structure (SMILES) | IC50 [nM]
39 | COc1nc(-c2cccc(-c3cccc(-c4cnc(CN5CC[C@H](C(N)=O)C5)c(OC)n4)c3Cl)c2Cl)cnc1CNC[C@@H]1CCC(=O)N1 [compound 517] | 0.106
40 | COc1nc(-c2cccc(-c3cccc(-c4cnc(CNCCc5cnccn5)c(OC)n4)c3Cl)c2Cl)cnc1CNCCc1cnccn1 [compound 518] | 0.144
41 | COc1nc(-c2cccc(-c3cccc(-c4cnc(CN5C[C@@H](O)[C@@H](O)C5)c(OC)n4)c3Cl)c2Cl)cnc1CN1C[C@@H](O)[C@@H](O)C1 [compound 519] | 0.277
42 | COc1nc(-c2cccc(-c3cccc(-c4cnc(CNC[C@@H]5CCC(=O)N5)c(OC)n4)c3Cl)c2Cl)cnc1CNCCc1cnccn1 [compound 521] | 0.071
43 | COc1nc(-c2cccc(-c3cccc(-c4cnc(CN(CCO)CCO)c(OC)n4)c3Cl)c2Cl)cnc1CNC[C@@H]1CCC(=O)N1 [compound 522] | 0.064
44 | COc1nc(-c2cccc(-c3cccc(-c4cnc(CN5CCC(O)(CO)C5)c(OC)n4)c3Cl)c2Cl)cnc1CNC[C@@H]1CCC(=O)N1 (stereo partly shown) [compound 523] | 0.181
45 | COc1nc(-c2cccc(-c3cccc(-c4cnc(CN5CCC(N6CCNC6=O)C5)c(OC)n4)c3Cl)c2Cl)cnc1CN1CCC(N2CCNC2=O)C1 (stereo not shown) [compound 525] | 0.105
46 | COc1nc(-c2cccc(-c3cccc(-c4cnc(CN5C[C@H](O)[C@@H](O)C5)c(OC)n4)c3Cl)c2Cl)cnc1CN1C[C@H](O)[C@@H](O)C1 [compound 526] | 0.168
47 | COc1nc(-c2cccc(-c3cccc(-c4cnc(CN5CC(C(N)=O)C5)c(OC)n4)c3Cl)c2Cl)cnc1CN1CC(C(N)=O)C1 [compound 527] | 0.089
48 | COc1nc(-c2cccc(-c3cccc(-c4cnc(CN5CCC(N6CCNC6=O)C5)c(OC)n4)c3Cl)c2Cl)cnc1CNC[C@@H]1CCC(=O)N1 (stereo partly shown) [compound 528] | 0.064
49 | COC[C@@H]1C[C@H](OC)CN1Cc1ncc(-c2cccc(-c3cccc(-c4cnc(CNC[C@@H]5CCC(=O)N5)c(OC)n4)c3Cl)c2Cl)nc1OC [compound 530] | 0.212
50 | COc1nc(-c2cccc(-c3cccc(-c4cnc(CN5CCC(C(=O)N(C)C)C5)c(OC)n4)c3Cl)c2Cl)cnc1CN1CCC(C(=O)N(C)C)C1 (stereo not shown) [compound 531] | 0.225
51 | COc1nc(-c2cccc(-c3cccc(-c4cnc(CN5CC[C@@H](C(N)=O)C5)c(OC)n4)c3Cl)c2Cl)cnc1CN1CC[C@@H](C(N)=O)C1 [compound 532] | 0.273
52 | COc1nc(-c2cccc(-c3cccc(-c4cnc(CN5C[C@@H](CO)[C@H](C)C5)c(OC)n4)c3Cl)c2Cl)cnc1CN1C[C@@H](CO)[C@H](C)C1 [compound 533] | 0.096
53 | COc1nc(-c2cccc(-c3cccc(-c4cnc(CN5CCC(C(=O)N(C)C)C5)c(OC)n4)c3Cl)c2Cl)cnc1CNC[C@@H]1CCC(=O)N1 (stereo partly shown) [compound 534] | 0.299
54 | COc1nc(-c2cccc(-c3cccc(-c4cnc(CN5CCC6(CCC(=O)N6)C5)c(OC)n4)c3Cl)c2Cl)cnc1CN1CCC2(CCC(=O)N2)C1 (stereo not shown) [compound 537] | 0.064
55 | COc1nc(-c2cccc(-c3cccc(-c4cnc(CNCC[C@@H]5CNC(=O)C5)c(OC)n4)c3Cl)c2Cl)cnc1CNCC[C@@H]1CNC(=O)C1 [compound 538] | 0.199
